From US20140371258A1 (priority 2010, published 2014)
“Also recorded” adds a separate entry of the source. Read-outs that look alike come from different tables or passages of the source.

Experiments:
[1] = humans, cited from earlier work
[2] = system: human NCI-H460 lung tumor; test: NCI-H460 lung tumor xenograft efficacy study; assay type: in vivo
Source text: The purpose of the study was to evaluate the antitumor efficacy of exemplary PEG topotecan conjugates along with unmodified topotecan when administered against subcutaneously (sc) implanted human NCI-H460 lung tumor xenografts in male athymic nude mice.
Six-weeks-old male athymic nude mice were purchased from Charles River (Wilmington, Mass.) and acclimated in the laboratories prior to experimentation. […] Cages were changed twice weekly.
Thirty-to-forty mg fragments of human NCI-H460 lung tumor were implanted sc in mice near the right axillary area using a 12-gauge trocar needle and allowed to grow.
On each day of injection, a 15.625 mg/mL solution of PEG-topotecan (the amount of PEG-topotecan being 31.25 times the topotecan dosage) was prepared in saline. A portion of this solution was diluted with saline to the lower concentrations. All three solutions were quite viscous. A 0.5 mg/mL solution of topotecan was prepared in saline on each day of treatment. Lower dosages were achieved by diluting this solution with saline. All dosing solutions were administered by exact body weight using an injection volume of 0.2 mL/10 g of body weight. Both PEG-topotecan and topotecan solutions were prepared in subdued light with PEG-topotecan injected within two hours of preparation and topotecan injected within 30 minutes of preparation.
The experiment consisted of six treatment groups of ten mice per group and one vehicle-treated control group also with ten mice for a total of 70 mice on the first day of treatment. Both PEG-topotecan and topotecan were administered intravenously (iv) as three injections given four days apart (q4d×3) at dosages of 10, 2.5, and 1 mg/kg/dose. The control group (group 1) was treated with the vehicle (saline), which was also administered iv q4d×3.
The study was terminated 55 days after tumor implantation. Any animal whose tumor became ulcerated or reached 4,000 mg was euthanized prior to study termination.

[3] = system: human NCI-H460 lung tumor; test: H460 tumor growth after a single IV administration; assay type: in vivo; conditions: single iv injection at each compound's MTD; FIG. 7
Protocol: Six-weeks-old female athymic nude mice were purchased from Charles River (Wilmington, Mass.) and acclimated in the laboratories prior to experimentation. […] The animals were observed daily and clinical signs were noted.
Thirty-to-forty mg fragments of human NCI-H460 lung tumor were implanted sc in mice near the right axillary area using a 12-gauge trocar needle and allowed to grow. The day of tumor implantation was designated as day −7. Tumors were allowed to reach 100-234 mg in weight (100-234 mm^3 in size) before the start of treatment. A sufficient number of mice were implanted so that tumors in a weight range as narrow as possible were selected for the trial on the day of treatment initiation (day 7 after tumor implantation). […]
The experiment consisted of 3 treatment groups of 36 mice per group plus an untreated group of 3 mice for a total of 39 mice on the day of treatment. […] The above ‘topotecan-equivalent’ concentrations were calculated based on the topotecan content for each compound. […]
The sc tumors were measured and the animals were weighed twice weekly starting with the first day of treatment. Tumor volume was determined by caliper measurements (mm) and using the formula for an ellipsoid sphere: L×W^2/2=mm^3, where L and W refer to the larger and smaller perpendicular dimensions collected at each measurement. […]

[4] = mouse, in vivo, iv
Protocol: (§1) The experiment consisted of 3 treatment groups of 36 mice per group plus an untreated group of 3 mice for a total of 39 mice on the day of treatment. […] The above ‘topotecan-equivalent’ concentrations were calculated based on the topotecan content for each compound. […] At intervals (0.5, 1, 2, 4, 8, 12, 24, 72, 120, 168, 216 hr) following drug administration, 3 animals per treatment group were sacrificed, blood collected via cardiac puncture, and tumor tissue was excised. Tumor tissue was flash frozen and stored at −80° C. until analysis. Blood was processed to obtain plasma and stabilizers added as described for PK studies in beagle dogs. Samples were frozen and stored at −80° C. until analysis.
(§2) Plasma and tumor-tissue were analyzed by LC/MS-MS for topotecan. Data was reported as ng/mL for plasma samples and ng/mg for tumor samples.

[5] = Single-dose MTD study; design: species or system mice; conditions: mouse, in vivo, intravenous, topotecan-equivalent
[6] = system: HT29 human colon tumor; test: HT29 colorectal cancer xenograft efficacy study; conditions: for Non-Specific Deaths / Regressions (100%) / Tumor Free on Day 99: 10 animals per group; for Growth Delay (T-C): based on median days to 1000 mg
Source text: Six-weeks-old female athymic NCr-nu/nu mice were purchased from Charles River Laboratories, Inc. (Wilmington, Mass.) and acclimated in the laboratories for nine days prior to experimentation. The mice were housed in microisolator cages, up to five animals per cage. Each animal in the cage was identified by an ear punch. All mice were on a 12-hour light/dark cycle and received filtered municipal water and sterilizable rodent diet (Harlan-Teklad TD8656) ad libitum. Cages were changed twice weekly. The animals were observed daily and clinical signs were noted.
Thirty-to-forty mg fragments of HT29 human colon tumor, propagated in an in vivo passage, were implanted sc on the right flank area of mice using a12-gauge trocar needle. The day of tumor implantation was designated as Day 0. […] A sufficient number of mice were implanted so that animals with tumors in a weight range as narrow as possible were selected for the trial on the day of treatment initiation (Day 14 after tumor implantation). Those animals selected with tumors in the proper size range on Day 14 were placed in several large cages and then assigned randomly to the various treatment groups.
The lower dosage was achieved by further dilution with saline. The dosing solutions were treated as light-sensitive (formulated under amber lights and dispensed into brown bottles), stored at room temperature, and administered within 2 h of formulation. […] The lower dosage was achieved by further dilution with saline. The dosing solutions were treated as light-sensitive (formulated under amber lights and dispensed into brown bottles), were stored at room temperature, and were administered within 2 h of formulation. Topotecan was prepared at a concentration of 1.0 mg/mL on each day of treatment in saline. The lower dosages were achieved by further dilutions with saline. The dosing solutions were treated as light-sensitive (formulated under amber lights and dispensed into brown bottles), were kept on ice, and were administered within 30 min of formulation. Saline was obtained from Phoenix Pharmaceutical, Inc.
The study consisted of a vehicle-treated control group and seven treatment groups with ten mice each for a total of 80 mice at the start of treatment. […] The control group was treated intravenously with saline on the same treatment schedule. All treatments were administered by exact body weight with the injection volume being 0.2 mL/10 g of body weight.
Tumors were measured (the limit of detection being 32 mg (4×4 mm)) and the animals were weighed twice weekly starting with the first day of treatment. Tumor volume was determined by caliper measurements (mm) and using the formula for an ellipsoid sphere: L×W^2/2=mm^3, where L and W refer to the larger and smaller perpendicular dimensions collected at each measurement. This formula is also used to calculate tumor weight, assuming unit density (1 mm^3=1 mg). Individual tumor and body weight measurements were collected.
Number of non-specific deaths, number of complete tumor regressions, number of tumor-free survivors on Day 99, and median number of days for the tumors in each group to reach 1,000 mg were calculated. The median time (in days) to reach 1,000 mg was used in the calculation of the overall delay in the growth of the median tumor (T-C; T=treated group; C=control group). Individual tumor weights, group median tumor weights, TIC (%) based on median tumor weights, group mean tumor weights, standard error of the mean tumor weights, the time for the individual animal's tumor to reach 1,000 mg, individual body weights, mean body weights, and the change in mean body weights relative to the mean body weight on the first day of collection (in grams and as a percent) were collected.

[7] = in vivo; conditions: mouse, iv
Protocol: as §1, §2

[8] = Maximum tolerated dose (tolerance) study, Q4D×3 iv; assay type: in vivo, female athymic NCr-nu/nu mice

camptothecin sodium
biological half life t1/2 ([1]; bolus iv): 15.3 hours

CC[C@@]1(O)C(=O)OCc2c1cc1n(c2=O)Cc2cc3c(CN(C)C)c(O)ccc3nc2-1 [topotecan, (S)-10-[(dimethylamino)methyl]-4-ethyl-4,9-dihydroxy-1H-pyrano[3′,4′:6,7]indolizino[1,2-b]quinoline-3,14(4H,12H)-dione]
growth delay compared with PEG-topotecan at the same dosage ([2]; 1.0 mg/kg/dose): significantly greater
deaths ([2]; 1.0 mg/kg/dose iv q4d×3): without deaths
deaths ([2]; 2.5 mg/kg/dose iv q4d×3): without deaths
deaths ([2]; 10 mg/kg/dose iv q4d×3): one
tumor growth inhibition / delay [3]: only minimal tumor growth delay; also recorded: delayed modestly
detectability of topotecan in plasma [4]: undetectable beyond 24 hr post-injection
biological half life t1/2 ([1]; 30 min iv): 2.8 hours
MTD [5]: 20 mg/kg
Median Days to 1000 mg ([6]; 7.5 mg/kg/inj iv Q4Dx3(14)): 38.5 days
Non-Specific Deaths ([6]; 7.5 mg/kg/inj iv Q4Dx3(14)): 0
Regressions (100%) ([6]; 7.5 mg/kg/inj iv Q4Dx3(14)): 0
Tumor Free on Day 99 ([6]; 7.5 mg/kg/inj iv Q4Dx3(14)): 0
Growth Delay (T-C) ([6]; 7.5 mg/kg/inj iv Q4Dx3(14)): 4.4 days
Median Days to 1000 mg ([6]; 15 mg/kg/inj iv Q4Dx3(14)): 46.8 days
Non-Specific Deaths ([6]; 15 mg/kg/inj iv Q4Dx3(14)): two
Regressions (100%) ([6]; 15 mg/kg/inj iv Q4Dx3(14)): 0
Tumor Free on Day 99 ([6]; 15 mg/kg/inj iv Q4Dx3(14)): 0
Non-Specific Deaths ([6]; 15 mg/kg/inj iv Q4Dx3(14), listed as Top): 2
Growth Delay (T-C) ([6]; 15 mg/kg/inj iv Q4Dx3(14)): 12.7 days
Median Days to 1000 mg ([6]; 20 mg/kg/inj iv Q4Dx3(14)): 49.9 days
Non-Specific Deaths ([6]; 20 mg/kg/inj iv Q4Dx3(14)): two
Regressions (100%) ([6]; 20 mg/kg/inj iv Q4Dx3(14)): 0
Tumor Free on Day 99 ([6]; 20 mg/kg/inj iv Q4Dx3(14)): 0
Non-Specific Deaths ([6]; 20 mg/kg/inj iv Q4Dx3(14), listed as Top): 2
Growth Delay (T-C) ([6]; 20 mg/kg/inj iv Q4Dx3(14)): 15.8 days
inhibition of growth of HT29 human colon tumor xenografts ([6]; dosage of 7.5 mg/kg/inj iv Q4D×3): minimally effective
inhibition of growth of HT29 human colon tumor xenografts ([6]; dosages of 20 and 15 mg/kg/inj iv Q4D×3): effective
concentration at 5 day [7]: < 1000 ng/g
maximum average body weight loss ([8]; iv Q4D×3, 5 mg/kg/inj): 0%
maximum average body weight loss ([8]; iv Q4D×3, 10 mg/kg/inj): 0%
maximum tolerated dosage (MTD) ([8]; iv Q4D×3, not more than 10% deaths, no more than 20% average body weight loss): 15 mg/kg/inj
deaths ([8]; non-tumor-bearing mice, iv Q4D×3, dosages of 15, 10, and 5 mg/kg/inj): no deaths; also recorded: without deaths
